Test results from patent publication US5330990A, “Substituted urea compounds and their preparation and use” (Novo Nordisk A/S, priority 1989, dated 1994).
Structures can show the parent of a compound that is named as a salt.

molecular target: T1, 5-HT3 receptor (Cavia porcellus, UniProt O70212); assay: 5HT3-antagonist activity: inhibition of 5-HT-induced contractions of isolated guinea pig ileum in the presence of methysergide; assay type: cell-based; conditions: not given
T1 construct: from tissue; host or cells: guinea pig isolated ileum (terminal 15 cm)
T1 sequence (O70212 20-490): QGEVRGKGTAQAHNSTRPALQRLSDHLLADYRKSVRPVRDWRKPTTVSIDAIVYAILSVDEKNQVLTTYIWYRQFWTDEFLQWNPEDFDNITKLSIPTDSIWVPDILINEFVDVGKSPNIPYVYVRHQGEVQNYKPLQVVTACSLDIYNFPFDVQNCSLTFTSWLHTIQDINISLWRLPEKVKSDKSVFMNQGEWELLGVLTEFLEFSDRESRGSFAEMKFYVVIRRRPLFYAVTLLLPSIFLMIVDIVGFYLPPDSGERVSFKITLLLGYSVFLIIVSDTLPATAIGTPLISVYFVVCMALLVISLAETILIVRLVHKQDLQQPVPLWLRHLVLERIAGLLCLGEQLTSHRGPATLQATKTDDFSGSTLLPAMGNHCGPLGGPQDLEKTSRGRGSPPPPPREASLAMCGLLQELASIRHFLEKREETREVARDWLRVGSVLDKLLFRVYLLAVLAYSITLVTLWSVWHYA
Description: Compounds of formula (I) were tested for their 5HT3 -antagonist activity using the following method:
5-HT produces contractions of the guinea pig ileum via 2 different receptors. 1) direct contractions via 5-HT2 receptors on the muscle, 2) indirect contractions via 5-HT3 recaptots on intrinsic gut neurones, producing acetylcholine release. By administering 5-HT to lengths of ileum in the presence of methysergide (to block 5-HT2 receptors) you can assay 5-HT3 receptor activity.
Guinea pigs were killed by means of cervical dislocation the terminal 15 cm of ileum removed, and 1.5-2.0 cm lengths prepared and mounted in 10 ml organ baths containing calcium deficient tyrodes of the following composition (mM) NaCl (136.9); KCl (2.68); CaCl2 (0.9); MgCl2 (1.05); NaCO3 (11.9); NaH2 PO4 (0.42); glucose (5.55) and containing methysergide (10^-6 M) maintained at 37° C. and gassed with 95% O2 and 5% CO2. The mechanical activity of the muscle was measured by a HSE 351 isometric transducer connected via a HSE bridge amplifier to a potentiometric pen recorder. Resting tension was 1 g and the tissue left to equilibrate for 1 hour.
First a dose response curve is obtained to acetylcholine on each tissue. Then one tissue is incubated for 20 min with tyrode and three with tyrode plus the putative 5-HT3 antagonist. After this incubation dose response curves to 5-HT are constructed to 5-HT in all 4 tissues (one control 3+test drug). Contact time for 5-HT 30 sec.
The maximum response to acetylcholine for each tissue is measured and the responses to 5-HT calculated as percentage maximum of the acetylcholine (Ach) maximum response in that tissue. The peak of the 5-HT response is measured.
For each tissue the concentration of 5-HT giving 100% of the maximum acetylcholine response (measured at 30 sac) is quoted.
The effect of a drug is quantified as the ratio of the concentration of 5-HT producing a 100% maximal Ach response in the presence and absence of the antagonist (dose ratio). The figure quoted is the concentration of the antagonist giving a dose ratio of 2, (A2).

SMILES | Kb
O=C(Nc1ccccc1-c1nc(C2CC2)no1)NC1CN2CCC1CC2 (stereo not drawn) [Example 10, N-(2-(3-Cyclopropyl-1,2,4-oxadiazol-5-yl)-phenyl)-N^1-(3-quinuclidinyl)urea] | 283 nM

same assay, conditions: guinea pig ileum; methysergide 10^-6 M; 37° C.; 20 min incubation with antagonist; 5-HT contact time 30 sec; dose ratio at 100% maximal Ach response; read-out: A2 (concentration of the antagonist giving a dose ratio of 2) (converted)

SMILES | Kb
CN1[C@@H]2CCC[C@H]1C[C@@H](NC(=O)Nc1ccccc1-c1nc(C3CC3)no1)C2 [Example 8, N-(2-(3-Cyclopropyl-1,2,4-oxadiazol-5-yl)-phenyl)-N^1-(endo-9-methyl-9-azabicyclo[3.3.1]non-3-yl)urea, HCl] | 3.41 nM
CCCCc1noc(-c2ccccc2NC(=O)N[C@H]2C[C@H]3CC[C@@H](C2)N3C)n1 [Example 7, N-(2-(3-Butyl-1,2,4-oxadiazol-5-yl)phenyl)-N^1-(endo-8-methyl-8-azabicyclo[3.2.1]oct-3-yl)urea, (CO2 H)2] | 13 nM
CCON=Cc1ccccc1NC(=O)N[C@H]1C[C@H]2CC[C@@H](C1)N2C [Example 16, N-(Endo-8-methyl-8-azabicyclo[3.2.1]oct-3-yl)-N^1-(2-(N-ethoxyiminomethyl)phenyl)urea, HCl] | 36.3 nM
CN1[C@@H]2CCC[C@H]1C[C@@H](NC(=O)Nc1ccccc1-c1nc(-c3ccccc3)no1)C2 [Example 11, N-(Endo-9-methyl-9-azabicyclo[3.3.1]non-3-yl)-N ^1-(2-(3-phenyl-1,2,4-oxadiazol-5-yl)phenyl)urea] | 24 nM
CON=Cc1ccccc1NC(=O)N[C@H]1C[C@H]2CCC[C@@H](C1)N2C [Example 18, N-(2-(N-Methoxyiminomethyl)phenyl)-N^1-(endo-9-methyl-9-azabicyclo[3.3.1]non-3-yl)urea] | 36.3 nM
Cc1noc(-c2ccccc2NC(=O)N[C@H]2C[C@H]3CC[C@@H](C2)N3C)n1 [Example 6, N-(Endo-8-methyl-8-azabicyclo[3.2.1]oct-3-yl) -N^1-(2-(3-methyl-1,2,4-oxadiazol-5-yl)-phenyl)urea, HCl] | 293 nM
CN1[C@@H]2CC[C@H]1C[C@@H](NC(=O)Nc1ccccc1-c1nc(C3CC3)no1)C2 [Example 5, N-(2-(3-Cyclopropyl-1,2,4-oxadiazol-5-yl)phenyl)-N^1-(endo-8-methyl-8-azabicyclo[3.2.1]oct-3-yl)urea HCl] | 43.5 nM
CN1[C@@H]2CC[C@H]1C[C@@H](NC(=O)Nc1ccccc1C=NOCC1CC1)C2 [Example 15, N-(Endo-8-methyl-8-azabicyclo[3.2.1]oct-3-yl)-N^1-(2-(N-cyclo-propylmethoxyiminomethyl)phenyl)urea, HCl] | 5.05 nM
